Key:
[1] = target: T1, Human Leukocyte Elastase (HLE) (Homo sapiens, UniProt P08246); assay: Leukocyte Elastase Assay (p-Nitroaniline, photometric); assay type: biochemical; conditions: standard reference agent
T1 sequence (P08246 30-267): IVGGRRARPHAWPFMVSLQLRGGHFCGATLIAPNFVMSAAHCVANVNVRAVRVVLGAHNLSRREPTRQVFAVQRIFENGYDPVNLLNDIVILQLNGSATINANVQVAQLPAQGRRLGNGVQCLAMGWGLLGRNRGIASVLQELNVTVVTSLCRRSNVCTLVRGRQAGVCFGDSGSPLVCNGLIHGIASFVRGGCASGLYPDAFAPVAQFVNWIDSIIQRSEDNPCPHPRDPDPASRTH
Description: A Leukocyte Elastase Assay was performed as follows. After preincubating the samples with the enzyme HLE (20 nM) at room temperature for 10 minutes, the reaction was started with an enzyme substrate (5 mM). The reaction time was 15 min at room temperature. The controls [t(0)] were performed without enzyme. […] The quantification of p-Nitroaniline was performed by direct photometrical measurement.
All sample points were measured in duplicate. […] The following tables, charts, and FIGS. 8A and 8B summarize the assay and the results.

[2] = system: inducible Nitrite Oxide Synthase (iNOS); assay: iNOS assay in LPS-stimulated murine macrophages (J774A.1); assay type: cell-based; conditions: standard reference agent
Description: An iNOS Assay was performed as follows. Murine Macrophages (1.5*10^5 cells/well) were seeded for 24 hours. After preincubating the samples with the cells at room temperature for 10 minutes, the reaction was started with 1 μg/ml LPS (E.coli 055:B5). The incubation time was 24 hours at 37° C. and 5% CO 2. The controls [t(0)] were performed without LPS stimulation. The quantification of Nitric Oxide was performed with a Nitric Oxide Colorimetric Assay Kit from BioVision (Art.Nr: #K262-200). The optical densities were measured at λ=570 nm. […] Sample points were measured in triplicate. […] The following tables and charts and FIG. 9 summarize the assay and the results.

Row | IC50 [1] [µM] | Structure (SMILES) | IC50 [2] [µM]
1 | 30 | C[C@H]1[C@H](C)CC[C@]2(C(=O)O)CC[C@]3(C)C(=CC[C@@H]4[C@@]5(C)CC[C@H](O)C(C)(C)[C@@H]5CC[C@]43C)[C@H]12 [Ursolic acid] | –
2 | – | COC(=O)[C@@H](N)CCCNC(=N)N[N+](=O)[O-] [L-NAME] | 600

Reference: patent US20070237848A1, “MORINDA CITRIFOLIA BASED COMPOSITIONS FOR TREATMENT OF ANTI-INFLAMMATORY DISEASES THROUGH INHIBITION OF COX-1, COX-2, INTERLEUKIN-1beta, INTERLEUKIN-6, TNF-alpha, HLE, AND iNOS” (priority 2005, published 2007)
